According to patent publication US20160145257A1, “SUBSTITUTED XANTHINES AND METHODS OF USE THEREOF” (Hydra Biosciences, Inc., priority 2013, published 2016):

Tests used:
[1] = biological target: T1, hTRPC5 (Homo sapiens, UniProt Q9UL62); experiment: Whole-cell patch clamp, block of LaCl3-activated TRPC5 inward current; assay type: cell-based; details: TRPC5-expressing HEK293 TREx cells, 80 μM LaCl3, inward current, IC50 estimated from 5 μM and 500 nM, read-out: hTRPC5 Patch La3+ Inwd (nM) (All Batches)
T1 construct: expressed in transfected cells; host or cells: HEK293 TREx cells with inducible TRPC5 expression
T1 sequence (Q9UL62 1-973): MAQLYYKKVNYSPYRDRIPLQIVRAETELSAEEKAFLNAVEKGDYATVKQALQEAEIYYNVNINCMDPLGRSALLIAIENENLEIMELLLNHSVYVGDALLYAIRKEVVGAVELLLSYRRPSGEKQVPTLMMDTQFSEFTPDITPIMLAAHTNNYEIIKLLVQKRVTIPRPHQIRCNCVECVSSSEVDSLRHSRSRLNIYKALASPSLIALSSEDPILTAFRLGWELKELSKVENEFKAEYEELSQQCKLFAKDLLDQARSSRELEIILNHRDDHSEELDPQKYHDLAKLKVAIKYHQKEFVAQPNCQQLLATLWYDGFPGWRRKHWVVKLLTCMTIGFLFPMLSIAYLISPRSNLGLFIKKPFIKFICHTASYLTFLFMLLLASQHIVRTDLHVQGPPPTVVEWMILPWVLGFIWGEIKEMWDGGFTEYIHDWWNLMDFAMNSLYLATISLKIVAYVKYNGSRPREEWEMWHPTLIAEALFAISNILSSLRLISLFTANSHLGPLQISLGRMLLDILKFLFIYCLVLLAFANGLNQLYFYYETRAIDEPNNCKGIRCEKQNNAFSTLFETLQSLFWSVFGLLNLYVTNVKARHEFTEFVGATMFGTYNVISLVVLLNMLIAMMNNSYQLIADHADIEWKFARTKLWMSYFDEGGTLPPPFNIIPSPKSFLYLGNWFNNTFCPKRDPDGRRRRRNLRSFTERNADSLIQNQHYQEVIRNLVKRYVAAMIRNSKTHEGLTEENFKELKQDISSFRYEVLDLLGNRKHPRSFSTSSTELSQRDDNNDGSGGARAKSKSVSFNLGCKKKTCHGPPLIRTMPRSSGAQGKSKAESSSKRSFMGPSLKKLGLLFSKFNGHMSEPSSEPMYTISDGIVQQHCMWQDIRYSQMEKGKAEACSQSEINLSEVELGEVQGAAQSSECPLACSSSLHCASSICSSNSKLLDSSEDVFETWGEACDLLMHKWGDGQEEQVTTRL
How it was run: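 Whole-cell recordings in induced TRPC5-expressing HEK293 TREx cells, holding −40 mV, 400 ms ramps −120 to +100 mV every 5 s; current activated by 80 μM external LaCl3 and 1,400 nM pipette free Ca2+ (pH 7.2 internal, 7.4 external). Inward block at −80 mV, with LaCl3 present; IC50 estimated from testing at 5 μM and 500 nM.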

[2] = biological target: T2, hTRPC4 (Homo sapiens, UniProt Q9UBN4); experiment: Whole-cell patch clamp, block of TRPC4 inward current; assay type: cell-based; details: read-out: hTRPC4 Patch Inwd (nM) (All Batches)
T2 sequence (Q9UBN4 1-977): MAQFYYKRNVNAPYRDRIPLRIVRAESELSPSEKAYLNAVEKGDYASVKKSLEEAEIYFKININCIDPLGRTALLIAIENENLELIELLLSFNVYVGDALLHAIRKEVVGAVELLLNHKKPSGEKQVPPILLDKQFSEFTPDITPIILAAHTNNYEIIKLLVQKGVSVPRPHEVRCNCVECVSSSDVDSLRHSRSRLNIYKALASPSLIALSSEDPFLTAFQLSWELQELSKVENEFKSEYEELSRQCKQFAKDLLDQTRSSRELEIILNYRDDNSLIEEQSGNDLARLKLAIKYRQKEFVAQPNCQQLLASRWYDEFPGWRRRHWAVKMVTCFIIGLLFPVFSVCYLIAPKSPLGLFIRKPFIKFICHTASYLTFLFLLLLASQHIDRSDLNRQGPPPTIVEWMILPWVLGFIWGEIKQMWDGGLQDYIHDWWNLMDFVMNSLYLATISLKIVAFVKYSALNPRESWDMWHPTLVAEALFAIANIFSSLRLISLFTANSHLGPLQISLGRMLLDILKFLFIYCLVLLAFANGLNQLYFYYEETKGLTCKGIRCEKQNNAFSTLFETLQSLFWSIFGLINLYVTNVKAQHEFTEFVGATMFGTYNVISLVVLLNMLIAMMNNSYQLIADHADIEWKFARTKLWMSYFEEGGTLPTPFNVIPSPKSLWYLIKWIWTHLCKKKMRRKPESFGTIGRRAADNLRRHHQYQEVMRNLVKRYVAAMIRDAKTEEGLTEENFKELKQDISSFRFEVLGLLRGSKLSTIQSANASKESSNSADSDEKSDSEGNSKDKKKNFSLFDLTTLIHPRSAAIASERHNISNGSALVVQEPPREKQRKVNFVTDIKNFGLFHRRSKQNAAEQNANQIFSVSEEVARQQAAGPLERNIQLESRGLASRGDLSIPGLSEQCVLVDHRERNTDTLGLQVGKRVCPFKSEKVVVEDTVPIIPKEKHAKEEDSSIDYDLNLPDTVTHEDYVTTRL

## Cn1c(=O)c2c(nc(Oc3cccc(OC(F)(F)F)c3)n2Cc2ccc(Cl)cc2)n(C)c1=O [Compound 142, 7-(4-chlorobenzyl)-1,3-dimethyl-8-(3-(trifluoromethoxy)phenoxy)-1H-purine-2,6(3H,7H)-dione]
[1]
  IC50: < 100 nM
[2]
  IC50: < 100 nM

## Cn1c(=O)c2c(nc(Oc3cncc(C(F)(F)F)c3)n2Cc2ccc(Cl)cc2)n(C)c1=O [Compound 184, 7-(4-chlorobenzyl)-1,3-dimethyl-8-(5-(trifluoromethyl)pyridin-3-yloxy)-1H-purine-2,6(3H,7H)-dione]
[1]
  IC50: 1000 to 2000 nM

## Cn1c(=O)c2c(nc(Oc3cccc(C(F)(F)F)c3)n2Cc2ccc3ccccc3c2)n(C)c1=O [Compound 185, 1,3-dimethyl-7-(naphthalen-2-ylmethyl)-8-(3-(trifluoromethyl)phenoxy)-1H-purine-2,6(3H,7H)-dione]
[1]
  IC50: 2000 to 10000 nM

## CN(C)Cc1ccc(Cn2c(Oc3cccc(OC(F)(F)F)c3)nc3c2c(=O)n(C)c(=O)n3C)cc1 [Compound 186]
[1]
  IC50: 2000 to 10000 nM

## CC(c1ccc(Cl)cc1)n1c(Oc2cccc(C(F)(F)F)c2)nc2c1c(=O)n(C)c(=O)n2C (stereo not drawn) [Compound 187, 7-(1-(4-chlorophenyl)ethyl)-1,3-dimethyl-8-(3-(trifluoromethyl)phenoxy)-1H-purine-2,6(3H,7H)-dione]
[1]
  IC50: 100 to 500 nM

## COc1cccc(Cn2c(Oc3ccc(-c4ccccn4)cc3)nc3c2c(=O)n(C)c(=O)n3C)c1 [Compound 189, 7-(3-methoxybenzyl)-1,3-dimethyl-8-(4-(pyridin-2-yl)phenoxy)-1H-purine-2,6(3H,7H)-dione]
[1]
  IC50: 2000 to 10000 nM

## Cn1c(=O)c2c(nc(Oc3cccc(C(F)(F)F)c3)n2S(=O)(=O)c2ccc(Cl)cc2)n(C)c1=O [Compound 190]
[1]
  IC50: 2000 to 10000 nM

## Cn1c(=O)c2c(nc(Oc3cccc(OC(F)(F)F)c3)n2Cc2ccc3ccccc3c2)n(C)c1=O [Compound 191, 1,3-dimethyl-7-(naphthalen-2-ylmethyl)-8-(3-(trifluoromethoxy)phenoxy)-1H-purine-2,6(3H,7H)-dione]
[1]
  IC50: < 100 nM

## Cn1c(=O)c2c(nc(Sc3cccc(C(F)(F)F)c3)n2Cc2ccc(Cl)cc2)n(C)c1=O [Compound 192, 7-(4-chlorobenzyl)-1,3-dimethyl-8-(3-(trifluoromethyl)phenylthio)-1H-purine-2,6(3H,7H)-dione]
[1]
  IC50: 100 to 500 nM

## COc1cccc(Cn2c(Oc3ccc(Br)cc3)nc3c2c(=O)n(C)c(=O)n3C)c1 [Compound 194, 8-(4-bromophenoxy)-7-(3-methoxybenzyl)-1,3-dimethyl-1H-purine-2,6(3H,7H)-dione]
[1]
  IC50: 1000 to 2000 nM

## Cn1c(=O)c2c(nc(Oc3cccc(C(F)(F)F)c3)n2CCCc2ccc(Cl)cc2)n(C)c1=O [Compound 195]
[1]
  IC50: 2000 to 10000 nM

## Cn1c(=O)c2c(nc(Oc3cccc(C(F)(F)F)c3)n2-c2ccc(Cl)cc2)n(C)c1=O [Compound 196]
[1]
  IC50: 2000 to 10000 nM

## Cn1c(=O)c2c(nc(Oc3cccc(OC(F)(F)F)c3)n2Cc2ccc(Cl)c(Cl)c2)n(C)c1=O [Compound 197, 7-(3,4-dichlorobenzyl)-1,3-dimethyl-8-(3-(trifluoromethoxy)phenoxy)-1H-purine-2,6(3H,7H)-dione]
[1]
  IC50: < 100 nM

## Cn1c(=O)c2c(nc(Oc3cccc(OC(F)(F)F)c3)n2Cc2ccc(Cl)c(F)c2)n(C)c1=O [Compound 198, 7-(4-chloro-3-fluorobenzyl)-1,3-dimethyl-8-(3-(trifluoromethoxy)phenoxy)-1H-purine-2,6(3H,7H)-dione]
[1]
  IC50: < 100 nM

## Cc1ccc(Oc2nc3c(c(=O)n(C)c(=O)n3C)n2Cc2ccc(Cl)cc2)cc1C(F)(F)F [Compound 199]
[1]
  IC50: 2000 to 10000 nM

## Cn1c(=O)c2c(nc(Oc3cc(Cl)cc(OC(F)(F)F)c3)n2Cc2ccc(Cl)cc2)n(C)c1=O [Compound 202, 8-(3-chloro-5-(trifluoromethoxy)phenoxy)-7-(4-chlorobenzyl)-1,3-dimethyl-1H-purine-2,6(3H,7H)-dione]
[1]
  IC50: < 100 nM

## Cn1c(=O)c2c(nc(Oc3cccc(OC(F)(F)F)c3)n2Cc2cc(Cl)cc(Cl)c2)n(C)c1=O [Compound 204, 7-(3,5-dichlorobenzyl)-1,3-dimethyl-8-(3-(trifluoromethoxy)phenoxy)-1H-purine-2,6(3H,7H)-dione]
[1]
  IC50: < 100 nM

## COc1cc(Cn2c(Oc3cccc(OC(F)(F)F)c3)nc3c2c(=O)n(C)c(=O)n3C)ccc1Cl [Compound 205, 7-(4-chloro-3-methoxybenzyl)-1,3-dimethyl-8-(3-(trifluoromethoxy)phenoxy)-1H-purine-2,6(3H,7H)-dione]
[1]
  IC50: 100 to 500 nM

## Cc1cc(Cn2c(Oc3cccc(OC(F)(F)F)c3)nc3c2c(=O)n(C)c(=O)n3C)ccc1Cl [Compound 206, 7-(4-chloro-3-methylbenzyl)-1,3-dimethyl-8-(3-(trifluoromethoxy)phenoxy)-1H-purine-2,6(3H,7H)-dione]
[1]
  IC50: < 100 nM

## Cc1c(Oc2nc3c(c(=O)n(C)c(=O)n3C)n2Cc2ccc(Cl)cc2)cccc1C(F)(F)F [Compound 207, 7-(4-chlorobenzyl)-1,3-dimethyl-8-(2-methyl-3-(trifluoromethyl)phenoxy)-1H-purine-2,6(3H,7H)-dione]
[1]
  IC50: 2000 to 10000 nM

## CCCCCCOc1nc2c(c(=O)n(C)c(=O)n2C)n1Cc1ccc(Cl)cc1 [Compound 215, 7-(4-Chlorobenzyl)-8-(hexyloxy)-1,3-dimethyl-1H-purine-2,6(3H,7H)-dione]
[1]
  IC50: < 100 nM

## Cn1c(=O)c2c(nc(OCC3CCCC3)n2Cc2ccc(Cl)cc2)n(C)c1=O [Compound 216, 7-(4-Chlorobenzyl)-8-(cyclopentylmethoxy)-1,3-dimethyl-1H-purine-2,6(3H,7H)-dione]
[1]
  IC50: 100 to 500 nM

## Cn1c(=O)c2c(nc(OCCCCCO)n2Cc2ccc(Cl)cc2)n(C)c1=O [Compound 217, 7-(4-Chlorobenzyl)-8-((5-hydroxypentyl)oxy)-1,3-dimethyl-1H-purine-2,6(3H,7H)-dione]
[1]
  IC50: 2000 to 10000 nM
